The text below walks through data of ChEMBL document CHEMBL1201862, “PubChem BioAssay data set” (2004).

Test systems include A549; COLO 205; EKVX; HCC 2998; HCT-116; IGROV-1; KM-20L2; M19-MEL; MOLT-4; NCI-H226; SF-268; SF-295; SK-MEL-28; SN12C; SNB-19; SNB-75; DU-145; M14; PC-3; TK-10.
Holding throughout (assay): NCI-60 cell line screen, 48 h

The structures appear in SMILES notation.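 Protocol summary: plate cells (96-well), add compound at 5 concentrations, incubate 48 h, interpolate endpoints linearly. Abbreviation: GI50, concentration required for 50% inhibition of growth.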 Active and inactive are the calls of the source. No stated cut-off is given here; in the data, active = GI50 up to about 1.1 µM and inactive = higher.

`CCC1=CC2CN3CCc4c([nH]c5ccccc45)C(C(=O)OC)(C2)C13` (stereo unspecified): the GI50 in the test on A549 was 47.6 µM (inactive); with COLO 205, 39.4 µM (inactive); in the test on EKVX, 36.7 µM (inactive); with HCC 2998 it was 48.3 µM (inactive); in the test on HCT-116, 35.6 µM (inactive); with IGROV-1, 47.3 µM (inactive). Further, the GI50 was 1.22 µM (inactive) in the test with KM-20L2; 42.6 µM (inactive) in the test with M19-MEL; 39.8 µM (inactive) in the test with MOLT-4; 11 µM (inactive) in the test with NCI-H226; 54.5 µM (inactive) with SF-268; 45.2 µM (inactive) in the test on SF-295. The GI50 is 53.3 µM (inactive) with SK-MEL-28, 47.4 µM (inactive) in the test on SN12C, 46 µM (inactive) in the test on SNB-19 and 48.4 µM (inactive) in the test with SNB-75.

As to `COc1ccc2[nH]c3c(C)c4c(c(C)c3c2c1)CN(C)C=C4`, the GI50 with A549 is 0.873 µM (active); with COLO 205, 1.29 µM (inactive); with DU-145 it was 5.37 µM (inactive); with EKVX it was 2.49 µM (inactive); in the test with HCC 2998, 2.71 µM (inactive); in the test on HCT-116, 2.61 µM (inactive). The GI50 in the test with IGROV-1 was 1.82 µM (inactive); in the test with KM-20L2 it was 2.75 µM (inactive); with M14 it was 8.77 µM (inactive); with M19-MEL, 1.02 µM (active); in the test on MOLT-4, 0.65 µM (active); with NCI-H226, 0.267 µM (active). Moreover, the GI50 in the test with PC-3 was 11.5 µM (inactive); in the test on SF-268, 0.175 µM (active); in the test on SF-295, 0.293 µM (active); in the test on SK-MEL-28, 3.44 µM (inactive); with SN12C, 0.164 µM (active); in the test with SNB-19, 0.333 µM (active). The GI50 was 0.226 µM (active) with SNB-75 and 15.1 µM (inactive) with TK-10.

For `NC(CCCNc1ccc(O)cc1)C(=O)O` (stereo unspecified), the GI50 in the test on A549 was > 94.2 µM (inactive); with COLO 205, > 54.2 µM (inactive); in the test on EKVX, 38.8 µM (inactive); with HCC 2998, 40.6 µM (inactive); in the test on HCT-116, 18.2 µM (inactive); in the test on IGROV-1, 26.4 µM (inactive). In addition, the GI50 is > 100 µM (inactive) in the test with KM-20L2; 31.8 µM (inactive) with M14; 18.2 µM (inactive) in the test with M19-MEL; 25.4 µM (inactive) in the test with MOLT-4; > 100 µM (inactive) with NCI-H226; 42.8 µM (inactive) in the test with SF-268. The GI50 in the test on SF-295 was > 100 µM (inactive); in the test with SK-MEL-28, 42.6 µM (inactive); in the test with SN12C, > 47.5 µM (inactive); in the test on SNB-19, > 100 µM (inactive); in the test on SNB-75 it was 42.5 µM (inactive); in the test with TK-10 it was > 63.2 µM (inactive).

On to `CC(C)(C)C(=O)OCC1CCC(n2cnc3c(=O)[nH]c(N)nc32)O1` (stereo unspecified), for which the GI50 in the test with A549, with COLO 205, in the test with EKVX, in the test with HCC 2998, with HCT-116 and in the test with IGROV-1 was > 100 µM (inactive) throughout. The GI50 with KM-20L2, in the test on M14, with M19-MEL, in the test on NCI-H226, with SF-268 and with SF-295 was > 100 µM (inactive) each time. The GI50 is > 100 µM (inactive) in the test with SK-MEL-28; > 100 µM (inactive) in the test with SN12C; > 100 µM (inactive) with SNB-19; 40 µM (inactive) with SNB-75; > 100 µM (inactive) with TK-10.

As for `COc1ccc(Sc2ccccc2[N+](=O)[O-])cc1`, the GI50 in the test with A549 was 15.2 µM (inactive); in the test with COLO 205 it was 5.69 µM (inactive); with EKVX, 37 µM (inactive); with HCC 2998 it was 8.36 µM (inactive); with HCT-116, 7.64 µM (inactive); in the test on IGROV-1, 69.8 µM (inactive). Also, the GI50 in the test with KM-20L2 was > 10 µM (inactive); in the test with M14 it was 4.04 µM (inactive); in the test on M19-MEL, 7.23 µM (inactive); with MOLT-4, 16.1 µM (inactive); in the test with NCI-H226, 13 µM (inactive); with SF-268, 72.8 µM (inactive). Besides, the GI50 in the test on SF-295 was > 10 µM (inactive); in the test on SK-MEL-28 it was 5.28 µM (inactive); in the test on SN12C, 21.2 µM (inactive); in the test with SNB-19 it was > 100 µM (inactive); with SNB-75, 3.67 µM (inactive); in the test with TK-10, 34.8 µM (inactive).

For `C/C(=N\NC(=O)C[N+](C)(C)C)c1sc(-c2cccnc2)nc1C`, the GI50 with A549, in the test with COLO 205, in the test with EKVX, in the test with HCC 2998, with HCT-116 and with IGROV-1 was > 100 µM (inactive) in each case. Also, the GI50 in the test on KM-20L2, in the test on M14, in the test with M19-MEL, in the test with MOLT-4, in the test with NCI-H226 and in the test with SF-268 was > 100 µM (inactive) each time. Besides, the GI50 in the test with SF-295, in the test on SK-MEL-28, in the test with SNB-75 and in the test with TK-10 was > 100 µM (inactive) each time.

In the case of `NC1=NC(c2ccccc2)CC(c2cc(Cl)cc(Br)c2O)=N1` (stereo unspecified), the GI50 with A549 was 14.6 µM (inactive); in the test with COLO 205, 13 µM (inactive); in the test with EKVX, 10.1 µM (inactive); with HCC 2998, 13.6 µM (inactive); in the test with HCT-116 it was 12.1 µM (inactive); in the test with IGROV-1, 14.5 µM (inactive). Moreover, the GI50 in the test on KM-20L2 was 15.7 µM (inactive); in the test with M14, 14.7 µM (inactive); in the test with M19-MEL, 12.8 µM (inactive); with MOLT-4 it was 3.1 µM (inactive); in the test with NCI-H226, 18.9 µM (inactive); in the test with SF-268 it was 11.7 µM (inactive). For the same molecule, the GI50 is 10.9 µM (inactive) in the test on SF-295; 13.1 µM (inactive) in the test on SK-MEL-28; 13.4 µM (inactive) in the test with SN12C; 17 µM (inactive) with SNB-19; 14 µM (inactive) with SNB-75; 18.8 µM (inactive) in the test with TK-10.

`O=C(c1ccccc1)c1c(CC(O)c2ccncc2)n(C(=O)c2ccccc2)c2ccccc12` (stereo unspecified): the GI50 is 17.8 µM (inactive) in the test with A549; 17.9 µM (inactive) in the test on COLO 205; 17.1 µM (inactive) with HCC 2998; 15.6 µM (inactive) in the test on HCT-116; 16.7 µM (inactive) in the test with IGROV-1; 17.7 µM (inactive) in the test on KM-20L2. For the same molecule, the GI50 is 16.9 µM (inactive) in the test with M14; 17.9 µM (inactive) in the test on M19-MEL; 18.2 µM (inactive) with MOLT-4; 14.7 µM (inactive) in the test with NCI-H226; 20.7 µM (inactive) in the test with SF-268; 12.1 µM (inactive) in the test on SF-295. The GI50 in the test with SK-MEL-28 was 17.7 µM (inactive); with SNB-19 it was 21.8 µM (inactive); with SNB-75, 7.83 µM (inactive); with TK-10, 28.6 µM (inactive).

`Cn1cc2ccccc2c1-c1nc(F)nc(Nc2ccc(N)cc2)n1`: the GI50 in the test on A549 is 18.1 µM (inactive); in the test on COLO 205, > 10 µM (inactive); in the test on EKVX, 23.3 µM (inactive); in the test on HCC 2998, 18 µM (inactive); in the test on HCT-116, 15.5 µM (inactive); with IGROV-1, 12.7 µM (inactive). Also, the GI50 was 18 µM (inactive) in the test on KM-20L2; 13.6 µM (inactive) in the test with M14; 11.9 µM (inactive) in the test on M19-MEL; 17.5 µM (inactive) in the test with MOLT-4; 16.5 µM (inactive) in the test with NCI-H226; 20 µM (inactive) in the test with SF-268. The GI50 is 16.2 µM (inactive) in the test on SF-295; 15.5 µM (inactive) with SK-MEL-28; 17.2 µM (inactive) with SN12C; 29.3 µM (inactive) with SNB-19; 11.9 µM (inactive) in the test with SNB-75; 34.3 µM (inactive) with TK-10.

In the case of `O=C(CCC(=O)Nc1ccc(Cl)c(Cl)c1)CC(=O)c1ccc2ccccc2c1`, the GI50 in the test with A549 was > 100 µM (inactive); in the test with EKVX, > 100 µM (inactive); with HCC 2998, > 100 µM (inactive); in the test with HCT-116 it was > 100 µM (inactive); in the test with IGROV-1, > 100 µM (inactive); in the test with KM-20L2, 25.9 µM (inactive). Also, the GI50 in the test with M14 is > 100 µM (inactive); in the test with M19-MEL, > 100 µM (inactive); with MOLT-4 it was 48.3 µM (inactive); with NCI-H226, > 100 µM (inactive); with SF-268, > 100 µM (inactive); in the test with SF-295, > 100 µM (inactive). Further, the GI50 in the test with SK-MEL-28 was > 100 µM (inactive); with SN12C, > 100 µM (inactive); in the test with SNB-19 it was > 100 µM (inactive); in the test on SNB-75, 26.3 µM (inactive); in the test on TK-10, > 100 µM (inactive).

In the case of `Fc1cccc(Cl)c1C1SCc2nc3ccccc3n21` (stereo unspecified), the GI50 is 37.2 µM (inactive) with A549; 22.8 µM (inactive) in the test with COLO 205; 26.4 µM (inactive) in the test with EKVX; 31.7 µM (inactive) in the test on HCC 2998; 22.4 µM (inactive) in the test on HCT-116; 29.1 µM (inactive) in the test on IGROV-1. The GI50 in the test with KM-20L2 is 17.2 µM (inactive); in the test with M14 it was 34 µM (inactive); in the test with M19-MEL it was 26.1 µM (inactive); with MOLT-4 it was 18.8 µM (inactive); in the test on NCI-H226 it was 36.6 µM (inactive); in the test on SF-268, 50.5 µM (inactive). Also, the GI50 in the test on SF-295 was 23.7 µM (inactive); in the test on SN12C it was 41.4 µM (inactive); in the test on SNB-19 it was 46.1 µM (inactive); in the test on SNB-75, 38.5 µM (inactive); in the test on TK-10, 57 µM (inactive).
